What follows are compounds tested against T1, Androgen Receptor (AR) (Homo sapiens, UniProt P10275, T878A) (assay: LNCaP Androgen Receptor Down-regulation Cell Assay (immunofluorescence end point)). Conditions: LNCaP prostate carcinoma cells, compound incubation 20-22 hours, 50% reduction of the AR signal; read-out: Androgen Receptor Down-regulation Assay (a) IC50/μM.
T1 construct: cell based immuno-fluorescence assay using the LNCaP prostate epithelial cell line; endogenous in cells; host or cells: LNCaP clone FGC (ATCC CRL-1740)
T1 sequence (P10275 1-920 T878A): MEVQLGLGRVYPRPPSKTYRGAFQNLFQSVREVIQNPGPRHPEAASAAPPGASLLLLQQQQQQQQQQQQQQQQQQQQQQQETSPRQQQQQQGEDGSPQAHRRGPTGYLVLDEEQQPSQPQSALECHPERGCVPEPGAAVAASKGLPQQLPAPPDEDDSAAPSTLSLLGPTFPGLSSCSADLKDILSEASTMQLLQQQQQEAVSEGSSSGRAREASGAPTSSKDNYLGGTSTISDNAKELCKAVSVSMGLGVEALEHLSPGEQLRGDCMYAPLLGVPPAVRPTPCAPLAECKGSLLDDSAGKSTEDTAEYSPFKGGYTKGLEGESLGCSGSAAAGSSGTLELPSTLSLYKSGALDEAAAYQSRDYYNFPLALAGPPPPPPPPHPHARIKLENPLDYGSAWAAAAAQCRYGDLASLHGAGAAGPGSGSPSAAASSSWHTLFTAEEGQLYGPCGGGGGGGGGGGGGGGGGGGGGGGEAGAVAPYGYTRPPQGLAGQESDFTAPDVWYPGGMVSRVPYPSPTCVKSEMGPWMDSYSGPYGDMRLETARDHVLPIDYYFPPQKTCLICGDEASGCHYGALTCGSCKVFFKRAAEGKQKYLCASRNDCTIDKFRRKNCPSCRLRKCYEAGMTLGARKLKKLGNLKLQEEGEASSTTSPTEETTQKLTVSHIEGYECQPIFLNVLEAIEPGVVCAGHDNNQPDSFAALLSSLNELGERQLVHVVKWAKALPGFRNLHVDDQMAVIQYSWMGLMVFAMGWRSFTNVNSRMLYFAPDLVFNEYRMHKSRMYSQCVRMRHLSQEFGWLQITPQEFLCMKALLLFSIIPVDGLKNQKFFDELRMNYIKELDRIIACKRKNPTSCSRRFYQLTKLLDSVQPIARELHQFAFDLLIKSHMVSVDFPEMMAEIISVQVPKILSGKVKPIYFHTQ
Assay type: cell-based
Method in brief: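 LNCaP cells in medium with 5% charcoal-stripped FBS were plated overnight, then treated with a compound dilution series for 20-22 h at 37° C. After fixation, permeabilisation and immunostaining, AR-associated green fluorescence was quantified by laser-scanning microplate cytometry; AR down-regulation expressed as IC50 from fitted dose-response curves.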

| DC50 | Compound |
| --- | --- |
| 4.2 µM | C[C@H]1CN(Cc2cc(F)cc(F)c2)CCN1c1ccc2nnc(C(F)(F)F)n2n1 [Example 596] |
| 2.9 µM | C[C@H]1CN(Cc2ccc(F)cc2)CCN1c1ccc2nnc(C(F)(F)F)n2n1 [Example 597] |
| 4.2 µM | C[C@H]1CN(Cc2ccc(F)c(C#N)c2)CCN1c1ccc2nnc(C(F)(F)F)n2n1 [Example 598] |
| 5.8 µM | C[C@@H]1CN(Cc2cccnc2)CCN1c1ccc2nnc(C(F)(F)F)n2n1 [Example 599, 6-[(2R)-2-methyl-4-(pyridin-3-ylmethyl)piperazin-1-yl]-3-(trifluoromethyl)[1,2,4]triazolo[4,3-b]pyridazine] |
| 0.85 µM | C[C@@H]1CN(Cc2ccc(C#N)cc2)CCN1c1ccc2nnc(C(F)(F)F)n2n1 [Example 600] |
| 2.2 µM | C[C@@H]1CN(Cc2ccc(F)c(F)c2)CCN1c1ccc2nnc(C(F)(F)F)n2n1 [Example 601] |
| 1.6 µM | C[C@@H]1CN(Cc2cc(F)cc(F)c2)CCN1c1ccc2nnc(C(F)(F)F)n2n1 [Example 602] |
| 3.5 µM | C[C@@H]1CN(Cc2ccc(F)cc2)CCN1c1ccc2nnc(C(F)(F)F)n2n1 [Example 603] |
| 1.7 µM | C[C@@H]1CN(Cc2ccc(F)c(C#N)c2)CCN1c1ccc2nnc(C(F)(F)F)n2n1 [Example 604] |
| 5 µM | FC(F)(F)c1nnc2ccc(N3CC=C(c4cccnc4)CC3)nn12 [Example 605, 1′-[3-(trifluoromethyl)[1,2,4]triazolo[4,3-b]pyridazin-6-yl]-1′,2′,3′,6′-tetrahydro-3,4′-bipyridine] |
| 2.7 µM | Fc1cnccc1C1=CCN(c2ccc3nnc(C(F)(F)F)n3n2)CC1 [Example 606] |
| 7.4 µM | Fc1cncc(C2=CCN(c3ccc4nnc(C(F)(F)F)n4n3)CC2)c1 [Example 607] |
| 2.7 µM | CCOC(=O)c1cncc(C2=CCN(c3ccc4nnc(C(F)(F)F)n4n3)CC2)c1 [Example 608] |
| 6.6 µM | COc1ncc(C2=CCN(c3ccc4nnc(C(F)(F)F)n4n3)CC2)cc1F [Example 609] |
| 3.2 µM | FC(F)(F)c1nnc2ccc(N3CCC(c4cccnc4)CC3)nn12 [Example 610, 6-(4-pyridin-3-ylpiperidin-1-yl)-3-(trifluoromethyl)[1,2,4]triazolo[4,3-b]pyridazine] |
| 1.6 µM | Fc1cnccc1C1CCN(c2ccc3nnc(C(F)(F)F)n3n2)CC1 [Example 611] |
| > 13 µM | Fc1cncc(C2CCN(c3ccc4nnc(C(F)(F)F)n4n3)CC2)c1 [Example 612] |
| > 12 µM | COc1ncc(C2CCN(c3ccc4nnc(C(F)(F)F)n4n3)CC2)cc1F [Example 614] |
| 0.88 µM | Nc1ccc(C2CCN(c3ccc4nnc(C(F)(F)F)n4n3)CC2)cc1 [Example 615, 4-[1-[3-(trifluoromethyl)[1,2,4]triazolo[4,3-b]pyridazin-6-yl]piperidin-4-yl]aniline] |

| DC50 | Compound |
| --- | --- |
| 1.7 µM | Nc1cccc(C2CCN(c3ccc4nnc(C(F)(F)F)n4n3)CC2)c1 [Example 616, 3-[1-[3-(trifluoromethyl)[1,2,4]triazolo[4,3-b]pyridazin-6-yl]piperidin-4-yl]aniline] |
| 4.3 µM | FC(F)(F)c1nnc2ccc(N3CCC(Oc4cncc(Cl)c4)CC3)nn12 [Example 617] |
| > 4 µM | FC(F)(F)c1nnc2ccc(N3CCC(Oc4ccc(Cl)cn4)CC3)nn12 [Example 618] |
| 4.5 µM | FC(F)(F)c1nnc2ccc(N3CCC(Oc4ccncn4)CC3)nn12 [Example 619] |
| 2.3 µM | FC(F)(F)c1ccnc(OC2CCN(c3ccc4nnc(C(F)(F)F)n4n3)CC2)c1 [Example 621] |
| 7.4 µM | Cc1ccnc(OC2CCN(c3ccc4nnc(C(F)(F)F)n4n3)CC2)n1 [Example 622] |
| 0.89 µM | N#Cc1cccc(OC2CCN(c3ccc4nnc(C(F)(F)F)n4n3)CC2)c1 [Example 623] |
| 1.4 µM | Fc1ccc(OC2CCN(c3ccc4nnc(C(F)(F)F)n4n3)CC2)cc1 [Example 625] |
| 1.1 µM | FC(F)(F)c1cccc(OC2CCN(c3ccc4nnc(C(F)(F)F)n4n3)CC2)c1 [Example 626] |
| 1.7 µM | N#Cc1ccc(OC2CCN(c3ccc4nnc(C(F)(F)F)n4n3)CC2)cc1 [Example 627] |
| 2.7 µM | N#Cc1ccc(OC2CCN(c3ccc4nnc(C(F)(F)F)n4n3)CC2)nc1 [Example 628] |
| 2.4 µM | CN(CCO)C(=O)c1ccc(C2CCN(c3ccc4nnc(C(F)(F)F)n4n3)CC2)cc1 [Example 630] |
| 1.1 µM | O=C(NCCN1CCCC1)c1ccc(C2CCN(c3ccc4nnc(C(F)(F)F)n4n3)CC2)cc1 [Example 631] |
| 1.9 µM | COCCNC(=O)c1ccc(C2CCN(c3ccc4nnc(C(F)(F)F)n4n3)CC2)cc1 [Example 633] |
| 1.1 µM | CN(C)C(=O)c1ccc(C2CCN(c3ccc4nnc(C(F)(F)F)n4n3)CC2)cc1 [Example 634] |
| 2.9 µM | O=C(c1ccc(C2CCN(c3ccc4nnc(C(F)(F)F)n4n3)CC2)cc1)N1CCOCC1 [Example 635] |
| 20 µM | O=C(c1ccc(C2CCN(c3ccc4nnc(C(F)(F)F)n4n3)CC2)cc1)N1CCNCC1 [Example 636] |
| 1.8 µM | CCNC(=O)c1ccc(C2CCN(c3ccc4nnc(C(F)(F)F)n4n3)CC2)cc1 [Example 637] |
| 0.9 µM | O=C(NCCN1CCOCC1)c1ccc(C2CCN(c3ccc4nnc(C(F)(F)F)n4n3)CC2)cc1 [Example 638, N-(2-morpholin-4-ylethyl)-4-[1-[3-(trifluoromethyl)[1,2,4]triazolo[4,3-b]pyridazin-6-yl]piperidin-4-yl]benzamide] |

| DC50 | Compound |
| --- | --- |
| 0.92 µM | Cc1cc(CNC(=O)c2ccc(C3CCN(c4ccc5nnc(C(F)(F)F)n5n4)CC3)cc2)no1 [Example 640] |
| 1.4 µM | CN1CCC(NC(=O)c2ccc(C3CCN(c4ccc5nnc(C(F)(F)F)n5n4)CC3)cc2)CC1 [Example 641] |
| 1.4 µM | CN1CCN(CCNC(=O)c2ccc(C3CCN(c4ccc5nnc(C(F)(F)F)n5n4)CC3)cc2)CC1 [Example 642] |
| 6 µM | CN(CCO)C(=O)c1cccc(C2CCN(c3ccc4nnc(C(F)(F)F)n4n3)CC2)c1 [Example 643] |
| 1.5 µM | O=C(NCCN1CCCC1)c1cccc(C2CCN(c3ccc4nnc(C(F)(F)F)n4n3)CC2)c1 [Example 644] |
| 2.3 µM | CN1CCN(C(=O)c2cccc(C3CCN(c4ccc5nnc(C(F)(F)F)n5n4)CC3)c2)CC1 [Example 645] |
| 6.1 µM | O=C(c1cccc(C2CCN(c3ccc4nnc(C(F)(F)F)n4n3)CC2)c1)N1CCNCC1 [Example 646] |
| 1.7 µM | CN(C)C(=O)c1cccc(C2CCN(c3ccc4nnc(C(F)(F)F)n4n3)CC2)c1 [Example 647] |
| 2.1 µM | O=C(c1cccc(C2CCN(c3ccc4nnc(C(F)(F)F)n4n3)CC2)c1)N1CCOCC1 [Example 648] |
| 2.3 µM | CNC(=O)c1cccc(C2CCN(c3ccc4nnc(C(F)(F)F)n4n3)CC2)c1 [Example 649] |
| 1.9 µM | CN1CCC(NC(=O)c2cccc(C3CCN(c4ccc5nnc(C(F)(F)F)n5n4)CC3)c2)CC1 [Example 651] |
| 1 µM | FC(F)(F)c1ccccc1OC1CCN(c2ccc3nnc(C(F)(F)F)n3n2)CC1 [Example 653] |
| 2.6 µM | N#Cc1ccccc1OC1CCN(c2ccc3nnc(C(F)(F)F)n3n2)CC1 [Example 654] |
| 1.1 µM | CC(=O)Nc1cccc(C2CCN(c3ccc4nnc(C(F)(F)F)n4n3)CC2)c1 [Example 655, N-[3-[1-[3-(trifluoromethyl)[1,2,4]triazolo[4,3-b]pyridazin-6-yl]piperidin-4-yl]phenyl]acetamide] |
| 1 µM | CN1CCN(CCCC(=O)Nc2cccc(C3CCN(c4ccc5nnc(C(F)(F)F)n5n4)CC3)c2)CC1 [Example 659, 4-(4-methylpiperazin-1-yl)-N-[3-[1-[3-(trifluoromethyl)-[1,2,4]triazolo[4,3-b]pyridazin-6-yl]piperidin-4-yl]phenyl]butanamide] |
| 0.63 µM | O=C(CCCN1CCCC1)Nc1cccc(C2CCN(c3ccc4nnc(C(F)(F)F)n4n3)CC2)c1 [Example 660] |
| 0.65 µM | O=C(CCCN1CCOCC1)Nc1cccc(C2CCN(c3ccc4nnc(C(F)(F)F)n4n3)CC2)c1 [Example 661] |
| 5.4 µM | COCCCC(=O)Nc1cccc(C2CCN(c3ccc4nnc(C(F)(F)F)n4n3)CC2)c1 [Example 662, 4-methoxy-N-[3-[1-(3-(trifluoromethyl)-[1,2,4]triazolo[4,3-b]pyridazin-6-yl)piperidin-4-yl]phenyl]butanamide] |
| 2.7 µM | CN1CCC(C(=O)Nc2ccc(C3CCN(c4ccc5nnc(C(F)(F)F)n5n4)CC3)cc2)CC1 [Example 663] |
